No end group written: not given here.

For one test, the system named is T98G glioblastoma cells. The test can be described thus: Cell number (growth and survival) after peptide treatment, T98G. It is filed as cell-based. Particulars: for growth and survival of T98G cells, time course: 10 μM or 20 μM for 1-6 days; for growth and survival of T98G cells, time course / number of T98G cells / morphology, growth and survival of T98G cells: stock without BSA; for number of T98G cells: 6-7 days; for number of T98G cells / effect of BSA in stock buffer on potency in suppressing growth and survival: 0 μM to 50 μM; for morphology, growth and survival of T98G cells: 5 days, 10 or 20 μM (CP-DN-CEBPB), 3, 10, 20 or 50 μM (CP-DN-CEBPD); for effect of BSA in stock buffer on potency in suppressing growth and survival: 6 days, BSA 3 mg/ml in stock, 0.6 mg/ml in medium. How it is done:
Replicate T98G glioblastoma cell cultures were exposed to dominant negative (DN) synthetic peptides having an N-terminal penetratin sequence followed by a CEBPB or CEBPD native leucine zipper sequence (CP-DN-CEBPB or CP-DN-CEBPD, respectively) for 5 days at final concentrations of 10 μM or 20 μM (CP-DN-CEBPB) or 3 μM, 10 μM, 20 μM or 50 μM (CP-DN-CEBPD). Stock solutions of the peptides were prepared in buffer without added bovine serum albumin (BSA).
Replicate T98G glioblastoma cell cultures were exposed to CP-DN-CEBPB or CP-DN-CEBPD, for 6-7 days at doses of 0 μM to 50 μM. […] Stock solutions of the peptides were prepared in buffer without added bovine serum albumin (BSA).
Replicate T98G cell cultures were exposed to CP-DN-CEBPB or CP-DN-CEBPD peptides (10 μM or 20 μM) for 1, 2, 3, 4, 5, or 6 days. […] Values shown in FIG. 7A and FIG. 7B represent means from 3 replicate cultures. Stock solutions of the peptides were prepared in buffer without added bovine serum albumin (BSA).
Four replicate cultures of T98G cells were treated for 6 days with a cell penetrating dominant negative CEBPB (CP-DN-CEBPB; FIG. 8A) or a cell penetrating dominant negative CEBPD (CP-DN-CEBPD; FIG. 8B) at doses of 0 μM to 50 μM, with or without bovine serum albumin (BSA). […] Concentration of BSA in the stock solution, when present, was 3 mg/ml. The final concentration of BSA in the cell culture medium was 0.6 mg/ml. Values represent means of determinations made on 4 replicate cultures for each condition.
Replicate cultures of HCT116, MDA-MB 231, MCF7, and T98G cells were exposed to a 50/50 by concentration mixture of CP-DN-CEBPB and CP-DN-CEBPD for 6 days at doses of 0 μM to 50 μM. Stock solutions of the peptides were prepared in buffer without added bovine serum albumin (BSA).
Replicate cultures of T98G, HCT116, MDA-MB 231, and MCF7 cells were exposed to CP-DN-CEBPB, CP-DN-CEBPD, or a CP-DN-CEBPD in which heptad repeat leucine residues were mutated to glycine residues for 6 days at doses of 0 μM to 50 μM. Stock solutions of the peptides were prepared in buffer without added bovine serum albumin (BSA).

The subject of test [1] is U251 gliblastoma multiforme cells. The test can be described thus: Cell number after peptide treatment, U251. It is filed as cell-based. To be noted: 6 days, 0 μM to 50 μM; stock without BSA. How it is done:
Replicate cultures were exposed to the peptides the for 6 days at the indicated concentrations. Stock solutions of the peptides were prepared in buffer without added bovine serum albumin (BSA).

For another test, the system named is A549 lung cancer cells. Description: Cell number after peptide treatment, A549. It is filed as cell-based. To be noted: 6 days, 0 μM to 50 μM; stock without BSA. The protocol:
Replicate cultures of MDA-MB-468 breast cancer cells, A549 lung cancer cells and 293T transformed embryonic kidney cells were exposed to CP-DN-CEBPB or CP-DN-CEBPD, for 6 days at doses of 0 μM to 50 μM. […] Stock solutions of the peptides were prepared in buffer without added bovine serum albumin (BSA).

Test [2] concerns MCF10A non-cancer human breast epithelial cells. The test can be described thus: Cell number after peptide treatment, MCF10A. The format is cell-based. To be noted: 6 days, 0 μM to 50 μM; stock without BSA. The protocol:
Replicate cultures of HIEC-6 non-cancer human intestinal epithelial cells, MCF10A non-cancer human breast epithelial cells, or normal human astrocytes were exposed to CP-DN-CEBPB or CP-DN-CEBPD, for 6 days at doses of 0 μM to 50 μM. […] Stock solutions of the peptides were prepared in buffer without added bovine serum albumin (BSA).

Test [3] concerns T98G cells. Description: Colony forming activity in soft agar, T98G. It is filed as cell-based. Particulars: 6 days; doses 0.05, 0.5 and 5 μM. How it is done:
(§1) T98G (FIG. 21A), MDA-MB 231 (FIG. 21B), and HCT116 (FIG. 21C) cells were exposed to CP-DN-CEBPB and CP-DN-CEBPD for 6 days at doses of 0.05 μM 0.5 μM, and 5 μM while growing in soft agar. Growth was inhibited by does as low as 0.5 μM. T98G (FIG. 21D), MDA-MB 231 (FIG. 21E), and HCT116 (FIG. 21F) cells were exposed to CP-DN-CEBPB and CP-DN-CEBPD for 6 days at doses of 0.05 μM 0.5 μM, and 5 μM while growing on culture plates. Growth was inhibited by does as low as 0.5 μM.

Test [4] concerns HCT116 cells. The test can be described thus: Colony forming activity on culture plates, HCT116. The format is cell-based. To be noted: 6 days; doses 0.05, 0.5 and 5 μM. How it is done:
as §1

The test system of test [5] is T98G cells. The test can be described thus: Scratch migration assay, T98G. It is filed as cell-based. To be noted: 20 hours, 20 μM or 40 μM. The protocol:
Monolayers of MDA-MB 231 or T98G cells were subjected to formation of a scratch at 0 time and cultured for 20 hours in 20 μM or 40 μM CP-DN-CEBPB and CP-DN-CEBPD. Multiple images taken at 0 time and after 20 hours were analyzed for gap width of the scratches into which cells migrated or not. Example images for T98G are found in FIG. 22A, with compiled data for the T98G samples in FIG. 22B. Example images for MDA-MB 231 are found in FIG. 22C, with compiled data for the MDA-MB 231 samples in FIG. 22D.

The subject of test [6] is HCT116 cells. The test can be described thus: Apoptotic nuclei, propidium iodide flow cytometry, HCT116. It is filed as cell-based. Particulars: 20 μM, 3 days, vs untreated cells. How it is done:
MDA-MB-231, MCF7, HCT116 and T98G cancer cell lines were treated for 3 days with 20 μM CP-dn-CEBPB and CP-dn-CEBPD peptides from stock solutions prepared without additives. Cultures were stained with propidium iodide and assessed for proportion of cells with apoptotic nuclei by flow cytometry.
Background: In flow cytometry, cells or beads pass a laser one at a time.

For test [7], the system named is HIEC-6 non-cancer cell lines. Description: PI-Annexin staining and flow cytometry, HIEC-6. The format is cell-based, human. To be noted: 20 μM, 3 days. How it is done:
MDA-MB-231, MCF7, HCT116 and T98G cancer cell lines and HIEC-6 non-cancer cell lines were treated for 3 days with 20 μM CP-dn-CEBPB and CP-dn-CEBPD peptides from stock solutions prepared without additives, followed by PI-Annexin staining and flow cytometry. Numbers in upper and lower quadrants indicate % of cells in early (lower) or late (upper) apoptotic phase.

On to “RQIKIWFQNRRMKWKKLETQHKVLELTAENERLQKKVEQLSRELSTLRNLFKQL [CP-DN-CEBPB]”, for which, in the test on T98G glioblastoma cells, the “growth and survival of T98G cells, time course” value is given as “decreased as compared to untreated control cells”; the “number of T98G cells” value is reported as “dose-responsively decreased”; the “morphology, growth and survival of T98G cells” value was “dose-responsively affected the morphology, growth and survival”; the “effect of BSA in stock buffer on potency in suppressing growth and survival” value is on record as “greatly increased the potency”. For the same sequence, the “growth and survival of U251 cells” value in test [1] was “decrease in growth and survival”. In addition, the “number of A549 cells” value in the test on A549 lung cancer cells is “dose-dependent decrease in the number”. For the same sequence, the “number of MCF10A cells” value in test [2] was “did not cause a dose-dependent decrease”. In addition, in the test with T98G cells [3], the “lowest dose at which growth was inhibited, soft agar” value amounted to 0.5 µM. In addition, the “lowest dose at which growth was inhibited, culture plates” value with HCT116 cells [4] turned out to be 0.5 µM. Moreover, the “cell migration into scratch (gap width)” value in the test with T98G cells [5] was “able to inhibit migration”. The “proportion of cells with apoptotic nuclei” value in the test with HCT116 cells [6] is recorded as “increased apoptotic cell death”. Moreover, the “apoptotic death (early or late apoptotic phase)” value in test [7] was “not in the control non-caner cell line”.

As to “RQIKIWFQNRRMKWKKLVELSAENEKLHQRVEQLTRDLAGLRQFFK [CP-DN-CEBPD]”, in the test on T98G glioblastoma cells, the “growth and survival of T98G cells, time course” value is recorded as “decreased as compared to untreated control cells”; the “number of T98G cells” value is on record as “dose-responsively decreased”; the “morphology, growth and survival of T98G cells” value is “dose-responsively affected the morphology, growth and survival”; the “effect of BSA in stock buffer on potency in suppressing growth and survival” value was “greatly increased the potency”. Moreover, the “growth and survival of U251 cells” value in test [1] was “decrease in growth and survival”. The “number of A549 cells” value in the test on A549 lung cancer cells is given as “dose-dependent decrease in the number”. Besides, the “number of MCF10A cells” value in test [2] is listed as “did not cause a dose-dependent decrease”. For the same sequence, in the test on T98G cells [3], the “lowest dose at which growth was inhibited, soft agar” value was 0.5 µM. In addition, the “lowest dose at which growth was inhibited, culture plates” value with HCT116 cells [4] stood at 0.5 µM. In addition, the “cell migration into scratch (gap width)” value with T98G cells [5] is “able to inhibit migration”. Moreover, the “proportion of cells with apoptotic nuclei” value in the test with HCT116 cells [6] was “increased apoptotic cell death”. Moreover, the “apoptotic death (early or late apoptotic phase)” value in test [7] is given as “not in the control non-caner cell line”.

For the origin of these results see US12428455B2, “Dominant negative CEBPB and CEBPD proteins and methods of use for decreasing viability of neoplastic cells” (The Trustees of Columbia University in the City of New York, priority 2018, dated 2025).
